# Data reported in patent US10716869B2, “Radiolabeled macrocyclic EGFR inhibitor” (Oncodesign SA, priority 2016, dated 2020).
# Key:
# [1] = biodistribution by ex vivo γ-counting in Sprague Dawley rats
# Experimental: To evaluate the biodistribution of the pure S (II) and R (III) enantiomers compared to compound (I), dynamic PET scan imaging and ex vivo gamma counting were performed on Sprague Dawley rats. Animals were injected with the radiotracer solution diluted in NaCl 0.9% to prepare a solution of activity 4-6 MBq (gamma-counting experiments) or 11-13 MBq (PET imaging experiments) in a volume of 300-400 or 600-800 μL, respectively. Radioactivity content in all biological samples was determined with scintillation γ-counter (Cobra 4180, Perkin-Elmer Inc.).
# At the light of the biodistribution data of compound (I), the biodistribution of the R (III)- and S (II)-enantiomers was assessed by γ-counting in the organs in which the accumulation of compound (I) was prominent (that is: blood, heart, kidneys, liver, stomach, small intestine and colon). Two timepoints were selected: 5 and 30 minutes post-injection. […] The higher uptakes of R enantiomer (III) and S enantiomer (II) in these organs were expected to be observed at early timepoints after injection, giving the highest signals in the γ-counter and therefore making the comparison of biodistribution data more relevant. Besides, as PET images were acquired with compound (I), PET imaging was included in the evaluation of the biodistribution of R enantiomer and S enantiomer. This gave the opportunity to had one additional timepoint at 4 hours post-injection for collection of major organs and determination of radioactivity content by ex vivo γ-counting.
# [2] = radiochemical stability in vehicle by HPLC; assay type: physicochemical; details: room temperature, vehicle physiologic serum/ethanol 87.5/12.5
# Experimental: By this method, the final radiolabeled compound can be obtained with a radiochemical purity greater than 98% in 100-110 min with a yield that can reach 25% (decay corrected). It has been noticed that an uncompleted evaporation of the solvents used for the purification of [^18F]Fluoroethyltosylate hampers the second step and conducts to lower yields. Specific activity of productions was in the range of […]. The radiolabeled compound is stable in the conditions of formulation as radiochemical purity still greater than 95% 20 h after production with a storage at room temperature.
# After radiosynthesis, the stability of the radiotracer was evaluated by HPLC both in its vehicle and in rat plasma. Compound (I) was formulated in physiologic serum/ethanol with the respective proportion 87.5/12.5 (v/v). A mixture of compounds (I) (i.e. radiolabelled) and (Ia) (i.e. cold analogue) was stable for up to 20 hours at room temperature in its vehicle, only one peak being detected at the expected retention time. In rat plasma two peaks were detected: one at 3.15 minutes and one at 8.02 minutes (corresponding to a mixture of compounds (I) and (Ia)) after an incubation at +37° C. for 4 hours.
compound,measurement,setting,value
CC(C)C1NC(=O)Cc2ccc(Cl)cc2Nc2ncnc3cc(OCC[18F])c(cc23)OCCCNC1=O (centres unmarked) [Compound (I)],uptake in liver,[1]; 5 minutes post injection,1.66±0.43 % ID/g
same,uptake in small intestine,[1]; 5 minutes post injection,0.28±0.15 % ID/g
same,uptake in blood,[1]; 5 minutes post-injection,0.13±0.02 % ID/g
same,uptake in heart,[1]; 5 minutes post-injection,0.91±0.12 % ID/g
same,uptake in kidneys,[1]; 5 minutes post-injection,5.07±0.30 % ID/g
same,uptake in stomach,"[1]; 5 minutes post-injection, unit printed as %",1.27±2.13%
same,uptake in liver,[1]; 30 minutes post injection,0.37±0.07 % ID/g
same,uptake in heart,[1]; 30 minutes post-injection,0.23±0.05 % ID/g
same,uptake in kidneys,[1]; 30 minutes timepoint,1.47±0.36 % ID/g
same,uptake in stomach,[1]; 30 minutes timepoint,2.72±4.75 % ID/g
same,uptake in colon,[1]; four hours post-injection,10.55±4.53 % ID/g
same,uptake in stomach,[1]; four hours post-injection,0.14±0.23 % ID/g
same,uptake in small intestine,[1]; thirty minutes post-injection,0.40±0.40 % ID/g
same,Radiochemical stability,[2],>20 h
